pIC50: −log10 of the molar value. Square brackets hold non-standard residues; d marks the D form. Peptide text beside a SMILES is read from it. Cit = NC(=O)NCCC[C@H](N)C(=O)O
What was measured:
[1] = system: cultured PBMCs from RA patients; experiment: Bead-based multiplex cytokine assay in culture supernatants; format: cell-based, human; details: supernatants of cultured PBMCs, day 5, Luminex panel IL-10, IL-13, IL-17A, IL-17F, TNF-α, IFN-γ
Method: A bead-based multiplex cytokine assay was custom-designed by Invitrogen for simultaneous detection of IL-10, IL-13, IL-17A, IL-17F, TNF-α, and IFN-γ on a Luminex platform. Supernatants were collected at day 5 and stored at −80°C until used. Supernatants from RA patients were analyzed using the Luminex 100 system according to the manufacturer’s instructions.

HLA-DRB1*01:01 = HLA-DRB1*01:01 (Homo sapiens, UniProt P01903+P01911, A100R/D57E/F55L/F60I/F76Y/I96L/L162R/M171V/P40L/Q125E/R42F/V115G/Y59C); experiment: Competition peptide-binding assay, HLA-DRB1*01:01; details: competition with 0.02 μM biotinylated HA306–318, plate-bound HLA-DRB1*01:01, increasing peptide concentrations; read-out: IC50 *01:01
Method: (§1) Stepwise binding analysis of 15-mer peptides derived from both native and citrullinated α-enolase to HLA-DRB1*01, *04:01, and *04:04 was performed using the ProImmune Class II Reveal assay (ProImmune, Oxford, UK). Relevant peptides were thereafter synthesized by GenScript (Piscataway, NJ, USA) and used for competition peptide-binding assays. […] Finally, peptide-binding affinity to the three different HLA alleles was assessed in direct binding assays in which N-terminally biotinylated epitopes (GenScript, Piscataway, NJ, USA) were incubated at concentrations from 5 to 0.05 μM with plate-bound relevant HLA-DRB1 molecules in the absence of a competitor peptide ([22]). The inflection point of the binding curve of a known binding epitope was used as a cutoff to separate weakly binding epitopes from background.
We decided to make use of HLA-DRB1*01:01 as a representative model for HLA-DRB1*01.

HLA-DRB1*04:04 = HLA-DRB1*04:04 (Homo sapiens, UniProt P01903+P01911, A100R/A169T/F76Y/I96L/K127E/L162R/M171V/N62H/P40V/Q125Y/R42H/S133A/S149N/S66Y/V209L/W38E); experiment: Competition peptide-binding assay, HLA-DRB1*04:04; details: competition with 0.02 μM biotinylated GAD65 270–285, plate-bound HLA-DRB1*04:04, increasing peptide concentrations; read-out: IC50 *04:04
Method: as §1, with “background. […]” for “background.”

HLA-DRB1*04:01 = HLA-DRB1*04:01 (Homo sapiens, UniProt P01903+P01911, A100K/A169T/F76Y/I96L/K127E/L162R/M171V/N62H/P40V/Q125Y/R42H/S133A/S149N/S66Y/V115G/V209L/W38E); experiment: biochemical
Method: The HLA-DR binding capacity of the identified peptides was assessed through in vitro competition binding assays in which native and citrullinated candidate epitopes were tested for their capacity to displace an established reference peptide (Figure 2; Table 2).

Row | SMILES | cytokine response in supernatants compared to the native peptide form [1] | pIC50 (HLA-DRB1*01:01) | pIC50 (HLA-DRB1*04:04) | pIC50 (HLA-DRB1*04:01)
1 | CC[C@H](C)[C@H](NC(=O)[C@H](Cc1c[nH]cn1)NC(=O)[C@H](CCC(=O)O)NC(=O)[C@@H](NC(=O)[C@H](C)NC(=O)[C@H](CCCCN)NC(=O)[C@H](CO)NC(=O)[C@@H](NC(=O)CNC(=O)[C@H](CCCCN)NC(=O)CNC(=O)[C@H](CCSC)NC(=O)[C@H](Cc1ccc(O)cc1)NC(=O)[C@@H](N)CCCNC(N)=O)C(C)C)C(C)C)C(=O)N[C@@H](CC(N)=O)C(=O)O [cit56] (H-[Cit]YMGKGVSKAVEHIN-OH; N-terminus and C-terminus assumed) | strong responses | < 4.30 | < 4.30 | 
2 | CC[C@H](C)[C@H](NC(=O)[C@H](CCCCN)NC(=O)[C@H](CC(C)C)NC(=O)[C@@H](NC(=O)[C@H](CO)NC(=O)[C@@H](N)CCSC)[C@@H](C)CC)C(=O)N[C@@H](Cc1c[nH]cn1)C(=O)N[C@@H](C)C(=O)N[C@@H](CCCNC(=N)N)C(=O)N[C@@H](CCC(=O)O)C(=O)N[C@H](C(=O)N[C@@H](Cc1ccccc1)C(=O)N[C@@H](CC(=O)O)C(=O)N[C@@H](CO)C(=O)N[C@@H](CCCNC(=N)N)C(=O)O)[C@@H](C)CC [peptide 1] (H-MSILKIHAREIFDSR-OH) |  | 5.46 | < 4.30 | < 4.30
3 | CC(C)C[C@H](NC(=O)CNC(=O)[C@H](CCCCN)NC(=O)[C@H](CO)NC(=O)[C@@H](N)[C@@H](C)O)C(=O)N[C@@H](Cc1ccccc1)C(=O)N[C@@H](CCCNC(=N)N)C(=O)N[C@@H](C)C(=O)N[C@@H](C)C(=O)N[C@H](C(=O)N1CCC[C@H]1C(=O)N[C@@H](CO)C(=O)NCC(=O)N[C@@H](C)C(=O)N[C@@H](CO)C(=O)O)C(C)C [peptide 26] (H-TSKGLFRAAVPSGAS-OH) |  | 5.85 | 6.30 | 5.40
4 | CC(C)C[C@H](NC(=O)[C@@H]1CCCN1C(=O)[C@H](CC(N)=O)NC(=O)[C@H](CCCNC(=N)N)NC(=O)[C@H](Cc1ccccc1)NC(=O)[C@H](CC(N)=O)NC(=O)[C@H](CCCNC(=N)N)NC(=O)CNC(=O)[C@H](C)NC(=O)[C@H](Cc1ccccc1)NC(=O)[C@H](CCCCN)NC(=O)[C@H](C)NC(=O)[C@@H](N)CCCCN)C(=O)N[C@@H](C)C(=O)N[C@@H](CCCCN)C(=O)O [peptide 420] (H-KAKFAGRNFRNPLAK-OH) |  | < 4.30 | 4.60 | < 4.30

From publication PMC5108039, “Functional and Structural Characterization of a Novel HLA-DRB1*04:01-Restricted α-Enolase T Cell Epitope in Rheumatoid Arthritis” (Frontiers in Immunology, 2016)
